According to patent US10555950B2, “Bile acid recycling inhibitors for treatment of obesity and diabetes” (Satiogen Pharmaceuticals, Inc., priority 2008, dated 2020):
Entries after “also recorded” stand apart in the source; their conditions may differ.

Assays:
male db/db mice [1] = test: In vivo assay for reduction in blood glucose levels (Example 6, Compound 100A with or without sitagliptin); conditions: for reduction in plasma glucose from baseline: after 6 hours
Experimental: FIG. 1 illustrates the change in plasma glucose level in diabetic db/db mice after oral administration of a combination of the ASBTI (−)-(3R,5R)-trans-3-butyl-3-ethyl-2,3,4,5-tetrahydro-7,8-dimethoxy-5-phenyl-1,4-benzothiazepine1,1-dioxide at doses of 0, 0.1, 1, 10 mg/kg and 30 mg/kg sitagliptin (DPP-IV inhibitor) and the ASBTI alone.
FIG. 9 illustrates the change in body weight 24 h after administration of the ASBTI (−)-(3R,5R)-trans-3-butyl-3-ethyl-2,3,4,5-tetrahydro-7,8-dimethoxy-5-phenyl-1,4-benzothiazepine1,1-dioxide (100A) at doses of 0, 0.1, 1, 10 mg/kg in combination with 30 mg/kg sitagliptin (DPP-IV inhibitor) and the ASBTI alone.
Male db/db mice 6-7 weeks (approx 30 g) were fasted for 2 h. A combination of (−)-(3R,5R)-trans-3-butyl-3-ethyl-2,3,4,5-tetrahydro-7,8-dimethoxy-5-phenyl-1,4-benzothiazepine 1,1-dioxide (Compound 100A) at doses of 0, 0.1, 1, 10, mg/kg in 10% of DMSO-water and 30 mg/kg sitagliptin (DPP-IV inhibitor) in a mixture of valine-pyrrolidine in water was administered orally to male db/db mice (n=7-10 per group). Blood sample (˜1 μl from tail for glucose level testing) was taken at t=−24 h, 0, 60, 180, 240, 300, 360 min and 24 h after administration.

diabetic db/db mice [2] = test: Oral Compound 100A/100B plus sitagliptin versus subcutaneous exenatide, blood glucose at 3 hours (Example 9); assay type: in vivo; conditions: FIG. 10
male db/db mice [3] = test: In vivo assay for reduction in blood glucose levels (Example 7, Compound 100B with or without sitagliptin); conditions: for reduction in plasma glucose from baseline: after 6 hours, oral
Experimental: Male db/db mice 8-9 weeks (approx 40 g) were fasted for 2 h. A combination of 1-[4-[4-[(4R,5R)-3,3-dibutyl-7-(dimethylamino)-2,3,4,5-tetrahydro-4-hydroxy-1,1-dioxido-1-benzothiepin-5-yl]phenoxy]butyl]4-aza-1-azoniabicyclo[2.2.2]octane methane sulfonate (Compound 100B) at doses of 0, 3, 30, 100 mg/kg in saline-water and 30 mg/kg sitagliptin (DPP-IV inhibitor) in a mixture of valine-pyrrolidine in water was administered orally to male db/db mice (n=6-11 per group). Blood sample (˜1 μl from tail for glucose level testing) was taken at t=−24 h, 0, 1, 3, 4, 5, 6 h and 24 h after administration.

plasma GLP-1 level = test: Plasma GLP-1 levels in normal rats after oral ASBTI or metformin with DPP-IV inhibitor (Example 8); assay type: in vivo; conditions: for plasma GLP-1 level, ASBTI in combination with sitagliptin: oral 3, 30, 100 mg/kg + 30 mg/kg sitagliptin; for plasma GLP-1 level, ASBTI in combination with sitagliptin / plasma GLP-1 level, ASBTI alone: 0-5 h; for plasma GLP-1 level, ASBTI alone: oral 3, 30, 100 mg/kg
Experimental: 12-week-old male HSD rats were fasted for 16 h and given oral dose of 0, 3, 30, 100 mg/kg of the ASBTI 1-[4-[4-[(4R,5R)-3,3-dibutyl-7-(dimethylamino)-2,3,4,5-tetrahydro-4-hydroxy-1,1-dioxido-1-benzothiepin-5-yl]phenoxy]butyl]4-aza-1-azoniabicyclo[2.2.2]octane methane sulfonate (Synthesized by Nanosyn Inc., CA, USA) or metformin (Control, 0, 3, 30, 100, 300 mg/kg) in saline and a dose of 30 mg/kg sitaglipin in a mixture of valine-pyrrolidine in water (n=5 per group). Blood samples in volume of 0.6 ml for each time point were taken from the caudal vein with a heparinized capillary tube 0, 1, 3 and 5 h after the administration of compounds and plasma GLP-1 level were determined. Aprotinin and 10 μl of DPP-IV inhibitor per ml of blood were used for blood sample preservation during 10 min centrifugation and for storage at −70° C. or below. GLP-1 (Active pM) was tested by Millipore ELISA Kits (Millipore Corporation, 290 Concord Road, Billerica, Mass.).

diabetic db/db mice [4] = test: Plasma glucose in diabetic db/db mice after oral metformin plus sitagliptin (FIG. 3); assay type: in vivo; conditions: combination of metformin and sitagliptin
Experimental: FIG. 3 illustrates the change in plasma glucose level in diabetic db/db mice after oral administration of a combination of metformin at doses of 0, 3, 30, 100, 300 mg/kg and 30 mg/kg sitagliptin (DPP-IV inhibitor).

[5] = FIG. 6, 7, listed as 1-[4-[4-[(4R,5R)-3,3-dibutyl-7-(dimethylamino)-2,3,4,5-tetrahydro-4-hydroxy-1,1-

Which “change in body weight” value (male db/db mice [1]; 24 h after administration, 0.1-10 mg/kg with 30 mg/kg sitagliptin and ASBTI alone, FIG. 9) does the source give for `CCCC[C@]1(CC)CS(=O)(=O)c2cc(OC)c(OC)cc2[C@@H](c2ccccc2)N1` here?
Its value is “Weight loss”.

What about the “plasma glucose concentrations, ASBTI alone” value (male db/db mice [1]; ASBTI alone, oral, FIG. 1) of the same compound?
The value was “lowers plasma glucose concentrations”.

And the “reduction in plasma glucose from baseline” value (“reduction in plasma glucose” for short) (male db/db mice [1]; 01 mg/kg (so in the source) + 30 mg/kg sitagliptin, oral)?
The value was 5.6%.

What about the “reduction in plasma glucose” value (male db/db mice [1]; 1 mg/kg + 30 mg/kg sitagliptin, oral) of the same compound?
The value was 15%.

And the “reduction in plasma glucose” value (male db/db mice [1]; 10 mg/kg + 30 mg/kg sitagliptin, oral)?
The value was 42.3%.

And the “reduction of the elevated blood glucose levels” value (male db/db mice [1]; single oral administration, 0.1-10 mg/kg in combination with 30 mg/kg sitagliptin, compared to sitagliptin alone or vehicle, FIG. 1)?
Its value is “dose-dependent reduction of the elevated blood glucose levels”.

With `CCCC[C@]1(CC)CS(=O)(=O)c2cc(OC)c(OC)cc2[C@@H](c2ccccc2)N1` (relative stereo) [Compound 100A, (−)-(3R,5R)-trans-3-butyl-3-ethyl-2,3,4,5-tetrahydro-7,8-dimethoxy-5-phenyl-1,4-benzothiazepine1,1-dioxide] as the compound, how does the “reduction of plasma glucose levels” value (diabetic db/db mice [2]; 3 hours post-dose, oral 10 mg/kg + 30 mg/kg sitagliptin) read?
The value was 35%.

With `CCCCC1(CCCC)CS(=O)(=O)c2ccc(N(C)C)cc2[C@@H](c2ccc(OCCCC[N+]34CCN(CC3)CC4)cc2)[C@H]1O.CS(=O)(=O)[O-]` [Compound 100B, 1-[4-[4-[(4R,5R)-3,3-dibutyl-7-(dimethylamino)-2,3,4,5-tetrahydro-4-hydroxy-1,1-dioxido-1-benzothiepin-5-yl]phenoxy]butyl]4-aza-1-azoniabicyclo[2.2.2]octane methane sulfonate salt] as the compound, how does the “change in body weight” value (male db/db mice [3]; 24 h after administration, 3-100 mg/kg with 30 mg/kg sitagliptin, FIG. 8) read?
The value was “Weight loss”.

What about the “plasma glucose levels, ASBTI alone” value (male db/db mice [3]; ASBTI alone, 3, 30, 100 mg/kg oral, FIG. 4) of the same compound?
Its value is “lowers plasma glucose levels in dose dependent manner”.

What about the “reduction in plasma glucose” value (male db/db mice [3]; 3 mg/kg + 30 mg/kg sitagliptin) of the same compound?
Its value is 5.6%.

What about the “reduction in plasma glucose” value (male db/db mice [3]; 30 mg/kg + 30 mg/kg sitagliptin) of the same compound?
Its value is 15%.

What about the “reduction in plasma glucose” value (male db/db mice [3]; 100 mg/kg + 30 mg/kg sitagliptin) of the same compound?
Its value is 42.3%.

What about the “reduction of the elevated blood glucose levels” value (male db/db mice [3]; single oral administration, 3-100 mg/kg in combination with 30 mg/kg sitagliptin, compared to sitagliptin alone or vehicle, FIG. 2) of the same compound?
Its value is “dose-dependent reduction of the elevated blood glucose levels”.

And the “blood glucose lowering compared with exenatide” value (diabetic db/db mice [2]; 3 hours after dosing, oral + 30 mg/kg sitagliptin versus single subcutaneous 0.02 mg/kg exenatide)?
Its value is “reduces blood glucose levels more than a single subcutaneous injection of 0.02 mg/kg exenatide”.

What about the “plasma GLP-1 level, ASBTI in combination with sitagliptin” value (plasma GLP-1 level; FIG. 6, 7) of the same compound?
Its value is “dose-dependent increase in plasma GLP-1 level”.

What about the “plasma GLP-1 level, ASBTI in combination with sitagliptin” value (plasma GLP-1 level; [5]) of the same compound?
The value was “dose-dependent increase in plasma GLP-1 level; also recorded: elevation in GLP-1 levels in a dose-dependent manner”.

And the “plasma GLP-1 level, ASBTI alone” value (plasma GLP-1 level; FIG. 6, 7)?
Its value is “dose-dependent increase in plasma GLP-1 level”.

What about the “plasma GLP-1 level, ASBTI alone” value (plasma GLP-1 level; [5]) of the same compound?
Its value is “dose-dependent increase in plasma GLP-1 level; also recorded: elevation in GLP-1 levels in a dose-dependent manner”.

What does the source list for `CN(C)C(=N)N=C(N)N` [metformin, reference compound]?
duration of reduced plasma glucose concentrations (diabetic db/db mice [4]): about 6 hours; plasma GLP-1 level, metformin in combination with sitagliptin (plasma GLP-1 level; oral metformin 30, 100, 300 mg/kg + 30 mg/kg sitagliptin, FIG. 5): dose-dependent increase in plasma GLP-1 level; also recorded: elevation in GLP-1 levels in plasma

What does the source list for `N[C@@H](CC(=O)N1CCn2c(nnc2C(F)(F)F)C1)Cc1cc(F)c(F)cc1F` [sitagliptin, (3R)-3-amino-1-[9-(trifluoromethyl)-1,4,7,8-tetrazabicyclo[4.3.0]nona-6,8-dien-4-yl]-4-(2,4,5-trifluorophenyl)butan-1-one, reference compound]?
reduction in plasma glucose from baseline (male db/db mice [1]; 0 mg/kg ASBTI + 30 mg/kg sitagliptin, oral): 5.5%; reduction in plasma glucose from baseline (male db/db mice [3]; 0 mg/kg ASBTI + 30 mg/kg sitagliptin): 5.5%
